From ChEMBL document CHEMBL5463727, “Data for DCP probe SGK3-PROTAC1” (2023)

Columns and labels:
[1] = molecular target: Serine/threonine-protein kinase TBK1 (Homo sapiens) (UniProt Q9UHD2); assay: % Activity remaining of TBK1 in the Dundee kinase panel at 1.0 µM; settings: Compound concentration 1.0 uM
[2] = molecular target: Tau-tubulin kinase 2 (Homo sapiens) (UniProt Q6IQ55); assay: % Activity remaining of TTBK2 in the Dundee kinase panel at 1.0 µM; settings: Compound concentration 1.0 uM
[3] = molecular target: Ephrin type-B receptor 2 (Homo sapiens) (UniProt P29323); assay: % Activity remaining of EPH-B2 in the Dundee kinase panel at 1.0 µM; settings: Compound concentration 1.0 uM
[4] = molecular target: Protein kinase C gamma type (Homo sapiens) (UniProt P05129); assay: % Activity remaining of PKC gamma in the Dundee kinase panel at 1.0 µM; settings: Compound concentration 1.0 uM
[5] = molecular target: cAMP-dependent protein kinase catalytic subunit alpha (Homo sapiens) (UniProt P17612); assay: % Activity remaining of PKA in the Dundee kinase panel at 1.0 µM; settings: Compound concentration 1.0 uM
[6] = molecular target: Serine/threonine-protein kinase MARK1 (Homo sapiens) (UniProt Q9P0L2); assay: % Activity remaining of MARK1 in the Dundee kinase panel at 1.0 µM; settings: Compound concentration 1.0 uM
[7] = molecular target: Insulin-like growth factor 1 receptor (Homo sapiens) (UniProt P08069); assay: % Activity remaining of IGF-1R in the Dundee kinase panel at 1.0 µM; settings: Compound concentration 1.0 uM
[8] = molecular target: Glycogen synthase kinase-3 beta (Homo sapiens) (UniProt P49841); assay: % Activity remaining of GSK3 beta in the Dundee kinase panel at 1.0 µM; settings: Compound concentration 1.0 uM
Chain of Glycogen synthase kinase-3 beta (Homo sapiens) (P49841 whole entry, looked up): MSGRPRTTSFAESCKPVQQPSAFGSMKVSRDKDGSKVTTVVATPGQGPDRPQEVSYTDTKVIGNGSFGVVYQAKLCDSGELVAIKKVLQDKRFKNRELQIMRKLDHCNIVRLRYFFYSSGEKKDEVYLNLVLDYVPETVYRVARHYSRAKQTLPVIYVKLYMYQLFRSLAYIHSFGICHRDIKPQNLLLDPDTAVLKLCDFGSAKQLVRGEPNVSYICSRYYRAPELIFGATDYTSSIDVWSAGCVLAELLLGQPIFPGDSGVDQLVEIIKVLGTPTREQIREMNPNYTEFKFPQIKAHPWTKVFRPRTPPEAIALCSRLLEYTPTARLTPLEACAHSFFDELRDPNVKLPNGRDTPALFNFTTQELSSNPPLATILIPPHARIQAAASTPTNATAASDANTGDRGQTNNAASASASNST

[9] = molecular target: Homeodomain-interacting protein kinase 3 (Homo sapiens) (UniProt Q9H422); assay: % Activity remaining of HIPK3 in the Dundee kinase panel at 1.0 µM; settings: Compound concentration 1.0 uM
[10] = molecular target: Serine/threonine-protein kinase PINK1, mitochondrial (Homo sapiens) (UniProt Q9BXM7); assay: % Activity remaining of PINK in the Dundee kinase panel at 1.0 µM; settings: Compound concentration 1.0 uM
[11] = molecular target: Inhibitor of nuclear factor kappa-B kinase subunit epsilon (Homo sapiens) (UniProt Q14164); assay: % Activity remaining of IKK epsilon in the Dundee kinase panel at 1.0 µM; settings: Compound concentration 1.0 uM
[12] = molecular target: T1, Serine/threonine-protein kinase Sgk1 (Homo sapiens) (UniProt O00141); assay: (§1) % Activity remaining of SGK1 in the Dundee kinase panel at 1.0 µM; settings: Compound concentration 1.0 uM
T1 sequence (whole entry): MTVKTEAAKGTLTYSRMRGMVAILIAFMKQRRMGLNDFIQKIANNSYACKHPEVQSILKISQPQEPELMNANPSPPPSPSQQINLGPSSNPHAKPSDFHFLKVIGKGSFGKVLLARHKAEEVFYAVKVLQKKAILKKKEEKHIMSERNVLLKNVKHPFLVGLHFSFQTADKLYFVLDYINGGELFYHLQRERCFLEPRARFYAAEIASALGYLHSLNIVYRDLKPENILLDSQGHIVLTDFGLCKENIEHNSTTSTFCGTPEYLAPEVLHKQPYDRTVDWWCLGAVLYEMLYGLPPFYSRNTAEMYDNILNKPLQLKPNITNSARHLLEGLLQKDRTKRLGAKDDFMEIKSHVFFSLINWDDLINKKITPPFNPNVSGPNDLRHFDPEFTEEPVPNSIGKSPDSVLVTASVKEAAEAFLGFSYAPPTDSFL

[13] = molecular target: Serine/threonine-protein kinase Sgk1 (Homo sapiens, UniProt O00141); assay: as §1
[14] = molecular target: RAC-alpha serine/threonine-protein kinase (Homo sapiens) (UniProt P31749); assay: % Activity remaining of PKB alpha in the Dundee kinase panel at 1.0 µM; settings: Compound concentration 1.0 uM
[15] = molecular target: Casein kinase I isoform gamma-2 (Homo sapiens) (UniProt P78368); assay: % Activity remaining of CK1 gamma 2 in the Dundee kinase panel at 1.0 µM; settings: Compound concentration 1.0 uM
Chain of Casein kinase I isoform gamma-2 (Homo sapiens) (P78368 whole entry, looked up, canonical isoform): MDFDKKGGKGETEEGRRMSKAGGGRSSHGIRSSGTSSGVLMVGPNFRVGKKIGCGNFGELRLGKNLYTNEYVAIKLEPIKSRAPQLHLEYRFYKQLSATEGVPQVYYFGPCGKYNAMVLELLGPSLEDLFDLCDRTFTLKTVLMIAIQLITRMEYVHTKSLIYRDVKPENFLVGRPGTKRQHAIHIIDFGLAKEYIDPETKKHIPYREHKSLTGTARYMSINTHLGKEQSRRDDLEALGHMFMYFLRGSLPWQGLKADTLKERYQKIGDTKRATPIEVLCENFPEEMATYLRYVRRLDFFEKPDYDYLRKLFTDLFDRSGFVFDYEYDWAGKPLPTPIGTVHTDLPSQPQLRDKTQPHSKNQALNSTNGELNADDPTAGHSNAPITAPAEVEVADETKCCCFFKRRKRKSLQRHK

[16] = molecular target: Angiopoietin-1 receptor (Homo sapiens) (UniProt Q02763); assay: % Activity remaining of TIE2 in the Dundee kinase panel at 1.0 µM; settings: Compound concentration 1.0 uM
[17] = molecular target: Dual specificity testis-specific protein kinase 1 (Homo sapiens) (UniProt Q15569); assay: % Activity remaining of TESK1 in the Dundee kinase panel at 1.0 µM; settings: Compound concentration 1.0 uM
[18] = molecular target: Homeodomain-interacting protein kinase 1 (Homo sapiens) (UniProt Q86Z02); assay: % Activity remaining of HIPK1 in the Dundee kinase panel at 1.0 µM; settings: Compound concentration 1.0 uM
[19] = molecular target: MAP kinase-interacting serine/threonine-protein kinase 2 (Homo sapiens) (UniProt Q9HBH9); assay: % Activity remaining of MNK2 in the Dundee kinase panel at 1.0 µM; settings: Compound concentration 1.0 uM
Chain of MAP kinase-interacting serine/threonine-protein kinase 2 (Homo sapiens) (Q9HBH9 whole entry, looked up): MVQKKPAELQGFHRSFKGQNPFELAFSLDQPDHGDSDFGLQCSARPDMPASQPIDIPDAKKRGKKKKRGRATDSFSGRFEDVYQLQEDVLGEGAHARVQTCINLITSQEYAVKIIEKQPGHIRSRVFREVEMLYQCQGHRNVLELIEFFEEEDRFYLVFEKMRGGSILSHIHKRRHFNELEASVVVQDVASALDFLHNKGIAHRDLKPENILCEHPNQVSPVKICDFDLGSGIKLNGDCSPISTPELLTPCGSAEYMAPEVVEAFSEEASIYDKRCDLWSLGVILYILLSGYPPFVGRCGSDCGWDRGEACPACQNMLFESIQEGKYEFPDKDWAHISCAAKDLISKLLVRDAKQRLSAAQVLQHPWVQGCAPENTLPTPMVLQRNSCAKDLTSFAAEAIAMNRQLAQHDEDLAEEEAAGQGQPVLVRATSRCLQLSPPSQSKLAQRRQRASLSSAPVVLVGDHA

[20] = molecular target: Inhibitor of nuclear factor kappa-B kinase subunit beta (Homo sapiens) (UniProt O14920); assay: % Activity remaining of IKK beta in the Dundee kinase panel at 1.0 µM; settings: Compound concentration 1.0 uM
Chain of Inhibitor of nuclear factor kappa-B kinase subunit beta (Homo sapiens) (O14920 whole entry): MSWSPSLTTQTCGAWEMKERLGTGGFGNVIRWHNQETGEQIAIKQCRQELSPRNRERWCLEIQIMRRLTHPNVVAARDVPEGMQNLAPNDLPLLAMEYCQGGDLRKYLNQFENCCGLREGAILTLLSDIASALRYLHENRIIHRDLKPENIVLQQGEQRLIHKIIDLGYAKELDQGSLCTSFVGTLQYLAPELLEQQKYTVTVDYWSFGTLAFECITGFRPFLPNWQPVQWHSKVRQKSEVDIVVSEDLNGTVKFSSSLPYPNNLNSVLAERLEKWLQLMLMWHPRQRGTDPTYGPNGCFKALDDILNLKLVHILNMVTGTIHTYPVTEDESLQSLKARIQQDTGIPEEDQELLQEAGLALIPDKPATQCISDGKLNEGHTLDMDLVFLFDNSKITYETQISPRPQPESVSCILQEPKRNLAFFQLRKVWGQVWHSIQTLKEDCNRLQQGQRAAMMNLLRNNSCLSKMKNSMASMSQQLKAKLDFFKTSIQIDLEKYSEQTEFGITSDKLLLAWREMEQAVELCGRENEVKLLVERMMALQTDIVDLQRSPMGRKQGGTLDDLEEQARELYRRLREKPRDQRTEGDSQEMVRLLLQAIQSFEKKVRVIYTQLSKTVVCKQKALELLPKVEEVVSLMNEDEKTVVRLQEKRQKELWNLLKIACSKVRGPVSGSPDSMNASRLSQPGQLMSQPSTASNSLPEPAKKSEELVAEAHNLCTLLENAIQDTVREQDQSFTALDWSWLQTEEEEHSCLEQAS

[21] = molecular target: 5'-AMP-activated protein kinase catalytic subunit alpha-1 (Homo sapiens) (UniProt Q13131); assay: % Activity remaining of AMPK (hum) in the Dundee kinase panel at 1.0 µM; settings: Compound concentration 1.0 uM
Chain of 5'-AMP-activated protein kinase catalytic subunit alpha-1 (Homo sapiens) (Q13131 whole entry, looked up): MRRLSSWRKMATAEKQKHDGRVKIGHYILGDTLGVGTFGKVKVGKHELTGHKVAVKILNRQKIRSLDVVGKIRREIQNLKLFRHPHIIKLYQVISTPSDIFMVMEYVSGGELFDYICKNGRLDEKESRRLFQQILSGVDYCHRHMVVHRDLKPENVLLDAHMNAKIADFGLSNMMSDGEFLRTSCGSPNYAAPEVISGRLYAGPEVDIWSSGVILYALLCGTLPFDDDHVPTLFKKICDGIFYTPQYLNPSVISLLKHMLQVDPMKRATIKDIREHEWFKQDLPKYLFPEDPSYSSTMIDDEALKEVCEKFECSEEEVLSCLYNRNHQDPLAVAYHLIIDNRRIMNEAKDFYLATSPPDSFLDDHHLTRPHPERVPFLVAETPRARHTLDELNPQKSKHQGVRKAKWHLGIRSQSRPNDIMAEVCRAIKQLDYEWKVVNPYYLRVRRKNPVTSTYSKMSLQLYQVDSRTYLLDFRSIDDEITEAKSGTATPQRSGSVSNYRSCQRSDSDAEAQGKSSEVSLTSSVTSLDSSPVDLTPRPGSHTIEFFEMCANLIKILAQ

[22] = molecular target: NUAK family SNF1-like kinase 1 (Homo sapiens) (UniProt O60285); assay: % Activity remaining of NUAK1 in the Dundee kinase panel at 1.0 µM; settings: Compound concentration 1.0 uM
[23] = molecular target: Tau-tubulin kinase 1 (Homo sapiens) (UniProt Q5TCY1); assay: % Activity remaining of TTBK1 in the Dundee kinase panel at 1.0 µM; settings: Compound concentration 1.0 uM
Chain of Tau-tubulin kinase 1 (Homo sapiens) (Q5TCY1 whole entry): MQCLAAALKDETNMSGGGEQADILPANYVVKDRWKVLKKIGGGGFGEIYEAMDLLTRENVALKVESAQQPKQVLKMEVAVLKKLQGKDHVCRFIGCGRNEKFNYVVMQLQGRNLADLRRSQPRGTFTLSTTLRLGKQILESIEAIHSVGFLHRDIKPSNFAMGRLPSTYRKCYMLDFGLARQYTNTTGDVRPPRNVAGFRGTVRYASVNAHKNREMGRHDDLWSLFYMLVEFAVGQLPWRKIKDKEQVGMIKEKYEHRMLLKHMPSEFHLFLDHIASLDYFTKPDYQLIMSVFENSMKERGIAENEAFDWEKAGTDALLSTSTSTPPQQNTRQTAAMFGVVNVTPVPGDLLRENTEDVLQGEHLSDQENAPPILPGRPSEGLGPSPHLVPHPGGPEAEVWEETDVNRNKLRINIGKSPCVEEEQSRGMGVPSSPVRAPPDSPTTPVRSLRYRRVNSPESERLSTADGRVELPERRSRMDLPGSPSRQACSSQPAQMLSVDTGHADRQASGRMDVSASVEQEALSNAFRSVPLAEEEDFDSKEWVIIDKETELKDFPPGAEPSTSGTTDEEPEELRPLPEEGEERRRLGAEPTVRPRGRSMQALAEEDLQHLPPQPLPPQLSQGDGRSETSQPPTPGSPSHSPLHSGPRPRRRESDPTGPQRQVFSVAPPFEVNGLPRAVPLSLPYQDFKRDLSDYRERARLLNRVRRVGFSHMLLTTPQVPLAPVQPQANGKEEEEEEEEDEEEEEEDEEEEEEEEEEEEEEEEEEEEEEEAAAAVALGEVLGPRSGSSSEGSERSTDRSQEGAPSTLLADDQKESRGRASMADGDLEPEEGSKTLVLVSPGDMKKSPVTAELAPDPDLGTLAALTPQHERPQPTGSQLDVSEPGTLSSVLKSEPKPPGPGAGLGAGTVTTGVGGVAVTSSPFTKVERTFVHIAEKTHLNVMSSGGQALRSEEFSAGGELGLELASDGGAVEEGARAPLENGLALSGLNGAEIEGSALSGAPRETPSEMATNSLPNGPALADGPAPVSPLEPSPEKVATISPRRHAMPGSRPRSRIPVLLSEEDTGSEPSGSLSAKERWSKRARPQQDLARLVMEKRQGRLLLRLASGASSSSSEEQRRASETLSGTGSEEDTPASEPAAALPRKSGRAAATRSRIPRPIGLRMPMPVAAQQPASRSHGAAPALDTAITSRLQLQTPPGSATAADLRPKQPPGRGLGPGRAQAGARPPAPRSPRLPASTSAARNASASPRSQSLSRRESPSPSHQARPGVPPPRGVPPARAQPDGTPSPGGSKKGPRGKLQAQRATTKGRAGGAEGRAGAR

[24] = molecular target: SRSF protein kinase 1 (Homo sapiens) (UniProt Q96SB4); assay: % Activity remaining of SRPK1 in the Dundee kinase panel at 1.0 µM; settings: Compound concentration 1.0 uM
[25] = molecular target: Death-associated protein kinase 1 (Homo sapiens) (UniProt P53355); assay: % Activity remaining of DAPK1 in the Dundee kinase panel at 1.0 µM; settings: Compound concentration 1.0 uM
[26] = molecular target: Insulin receptor (Homo sapiens) (UniProt P06213); assay: % Activity remaining of IR in the Dundee kinase panel at 1.0 µM; settings: Compound concentration 1.0 uM
[27] = molecular target: Myosin light chain kinase, smooth muscle (Homo sapiens) (UniProt Q15746); assay: % Activity remaining of SmMLCK in the Dundee kinase panel at 1.0 µM; settings: Compound concentration 1.0 uM
[28] = molecular target: Ribosomal protein S6 kinase beta-1 (Homo sapiens, UniProt P23443); assay: RPS6KB1 degradation assay; assay type: functional
[29] = molecular target: T1, Serine/threonine-protein kinase Sgk1 (Homo sapiens); assay: SGK1 degradation assay; assay type: functional

Chain of Serine/threonine-protein kinase TBK1 (Homo sapiens) (Q9UHD2 whole entry): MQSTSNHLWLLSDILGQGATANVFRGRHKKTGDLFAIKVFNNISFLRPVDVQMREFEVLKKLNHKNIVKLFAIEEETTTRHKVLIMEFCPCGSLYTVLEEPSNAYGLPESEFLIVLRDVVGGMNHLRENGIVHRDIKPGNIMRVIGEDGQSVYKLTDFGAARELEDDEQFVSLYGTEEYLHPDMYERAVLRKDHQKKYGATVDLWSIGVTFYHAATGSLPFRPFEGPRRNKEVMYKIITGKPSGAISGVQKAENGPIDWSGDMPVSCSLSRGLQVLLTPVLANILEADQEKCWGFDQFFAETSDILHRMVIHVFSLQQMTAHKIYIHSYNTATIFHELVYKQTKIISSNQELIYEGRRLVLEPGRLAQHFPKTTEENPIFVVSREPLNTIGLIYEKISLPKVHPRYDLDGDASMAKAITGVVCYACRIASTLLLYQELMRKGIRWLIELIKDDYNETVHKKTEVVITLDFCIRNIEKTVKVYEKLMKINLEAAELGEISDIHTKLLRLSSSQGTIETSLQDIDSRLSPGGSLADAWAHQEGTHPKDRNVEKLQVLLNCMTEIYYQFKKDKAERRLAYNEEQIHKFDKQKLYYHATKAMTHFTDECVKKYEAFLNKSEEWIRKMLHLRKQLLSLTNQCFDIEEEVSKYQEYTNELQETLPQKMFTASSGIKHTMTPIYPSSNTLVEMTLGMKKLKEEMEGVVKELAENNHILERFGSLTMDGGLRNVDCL

SMILES	% Activity remaining [1]	% Activity remaining [2]	% Activity remaining [3]	% Activity remaining [4]	% Activity remaining [5]	% Activity remaining [6]	% Activity remaining [7]	% Activity remaining [8]	% Activity remaining [9]	% Activity remaining [10]	% Activity remaining [11]	% Activity remaining [12]	IC50 [13]	% Activity remaining [14]	% Activity remaining [15]	% Activity remaining [16]	% Activity remaining [17]	% Activity remaining [18]	% Activity remaining [19]	% Activity remaining [20]	other results
Cc1ccc(F)c(S(=O)(=O)Nc2ccc(-c3nc(OC[C@H]4CN(CCCCCCOCCOCCOCC(=O)N[C@H](C(=O)N5C[C@@H](O)C[C@H]5C(=O)NCc5ccc(-c6scnc6C)cc5)C(C)(C)C)CCO4)c4cn[nH]c4n3)cc2)c1	111%	89.7%	97.4%	99.9%	111%	93%	93.2%	106%	105%	109%	99%	50.9%	1.4 µM	117%	106%	80.8%	120%	126%	122%	101%	% Activity remaining [21]: 108%; % Activity remaining [22]: 90%; % Activity remaining [23]: 113%; % Activity remaining [24]: 104%; % Activity remaining [25]: 108%; % Activity remaining [26]: 93.9%; % Activity remaining [27]: 70.7%
Cc1ccc(F)c(S(=O)(=O)Nc2ccc(-c3nc(OC[C@H]4CN(CCCCCCOCCOCCOCC(=O)N[C@H](C(=O)N5C[C@H](O)C[C@H]5C(=O)NCc5ccc(-c6scnc6C)cc5)C(C)(C)C)CCO4)c4cn[nH]c4n3)cc2)c1	93.4%	93.5%	93.9%	103%	108%	99.4%	82.4%	108%	111%	108%	108%	34.5%	0.22 µM	105%	101%	63.8%	122%	135%	122%	99.9%	Degradation [28]: 0%; Degradation [29]: 0%; % Activity remaining [21]: 105%; % Activity remaining [22]: 98%; % Activity remaining [23]: 105%; % Activity remaining [24]: 95.8%; % Activity remaining [25]: 100%; % Activity remaining [26]: 103%; % Activity remaining [27]: 52.9%
